Test results published in ChEMBL document CHEMBL4229536, “In vitro and in vivo pharmacokinetic and pharmacodynamic study of MBRI-001, a deuterium-substituted plinabulin derivative as a potent anti-cancer agent” (Bioorg Med Chem, 2018).

Assays:
[1] = AUClast in Wistar rat at 4 mg/kg, iv; assay type: ADME, organism-based; parameters: dose 4 mg/kg, route intravenous, time 0 - last; conditions: in vivo
[2] = Drug excretion in Wistar rat urine at 4 mg/kg, iv measured after 0.5 hrs; assay type: ADME, organism-based; conditions: read-out: Drug excretion
Mus musculus [3] = test: Toxicity in Balb/c mouse assessed as decrease in body weight at 10 to 15 mg/kg, iv administered three times in a day every 2 days for 15 consecutive days; assay type: organism-based; conditions: in vivo, 48 h
[4] = Drug uptake in Wistar rat lungs at 6 mg/kg, iv measured after 12 hrs; assay type: ADME, organism-based, Lung; conditions: in vivo
[5] = Drug excretion in Wistar rat urine at 4 mg/kg, iv measured after 36 hrs; assay type: ADME, organism-based; conditions: read-out: Drug excretion
[6] = Drug uptake in Wistar rat spleen at 6 mg/kg, iv measured after 0.5 hrs; assay type: ADME, organism-based; conditions: in vivo
[7] = Drug uptake in Wistar rat lungs at 6 mg/kg, iv measured after 8 hrs; assay type: ADME, organism-based, Lung; conditions: in vivo
[8] = Drug uptake in Wistar rat pancreas at 6 mg/kg, iv measured after 1 hr; assay type: ADME, organism-based; conditions: in vivo
[9] = Drug uptake in Wistar rat pancreas at 6 mg/kg, iv measured after 4 hrs; assay type: ADME, organism-based; conditions: in vivo
[10] = Drug uptake in Wistar rat liver at 6 mg/kg, iv measured after 12 hrs; assay type: ADME, organism-based; conditions: in vivo
[11] = Drug excretion in Wistar rat feces at 4 mg/kg, iv measured after 108 hrs; assay type: ADME, organism-based; conditions: faeces, read-out: Drug excretion
[12] = Drug uptake in Wistar rat brain at 6 mg/kg, iv measured after 12 hrs; assay type: ADME, organism-based; conditions: in vivo
[13] = Drug excretion in Wistar rat feces at 4 mg/kg, iv measured after 36 hrs; assay type: ADME, organism-based; conditions: faeces, read-out: Drug excretion
[14] = Half life in rat liver microsomes at 50 uM in presence of NADPH by LC-MS/MS analysis; assay type: ADME, microsome
Cytochrome P450 2C19 = Cytochrome P450 2C19 (Homo sapiens, UniProt P33261); test: Inhibition of CYP2C19 in human liver microsomes preincubated for 10 mins followed by NADPH addition measured after 10 mins by LC-MS/MS analysis; assay type: ADME
[15] = Stability in rat plasma at 1 uM after 60 mins by LC-MS/MS analysis; assay type: ADME, cell-free; conditions: read-out: Stability
[16] = Drug excretion in Wistar rat feces at 4 mg/kg, iv measured after 72 hrs; assay type: ADME, organism-based; conditions: faeces, read-out: Drug excretion
[17] = Apparent volume of distribution in Wistar rat at 8 mg/kg, iv; assay type: ADME, organism-based; conditions: in vivo, read-out: Vz
[18] = Drug uptake in Wistar rat brain at 6 mg/kg, iv measured after 0.5 hrs; assay type: ADME, organism-based; conditions: in vivo
[19] = Drug uptake in Wistar rat heart at 6 mg/kg, iv measured after 4 hrs; assay type: ADME, organism-based; conditions: in vivo
[20] = Half life in Wistar rat at 8 mg/kg, iv; assay type: ADME, organism-based; conditions: in vivo
[21] = Drug uptake in Wistar rat brain at 6 mg/kg, iv measured after 1 hr; assay type: ADME, organism-based; conditions: in vivo
NCI-H460 [22] = test: Antitumor activity against human NCI-H460 cells xenografted in nude mouse assessed as inhibition of tumor weight at 3 mg/kg, iv administered once in every 2 days for 14 consecutive days cotreated with 25 mg/kg gefitinib once daily for 14 consecutive days relative to control; assay type: functional
[23] = Drug excretion in Wistar rat feces at 4 mg/kg, iv measured after 48 hrs; assay type: ADME, organism-based; conditions: faeces, read-out: Drug excretion
NCI-H460 [24] = test: Antitumor activity against human NCI-H460 cells xenografted in nude mouse assessed as inhibition of tumor weight at 9 mg/kg, iv administered once in every 2 days for 14 consecutive days relative to control; assay type: functional; conditions: 48 h
[25] = Drug excretion in Wistar rat urine at 4 mg/kg, iv measured after 8 hrs; assay type: ADME, organism-based; conditions: read-out: Drug excretion
[26] = Protein binding in Sprague-Dawley rat plasma at 2 uM after 4 hrs by LC-MS/MS analysis; assay type: ADME, cell-free; conditions: read-out: PPB (converted)
Mus musculus [27] = test: Toxicity in nude mouse xenografted with human NCI-H460 cells assessed as body weight at 9 mg/kg, iv administered once in every 2 days for 14 consecutive days (reference value: 20.6 +/- 1.5 g); assay type: organism-based; conditions: in vivo, 48 h
[28] = Drug uptake in Wistar rat small intestine at 6 mg/kg, iv measured after 8 hrs; assay type: ADME, organism-based; conditions: in vivo
Cytochrome P450 3A4 = Cytochrome P450 3A4 (Homo sapiens, UniProt P08684); test: Inhibition of CYP3A4 in human liver microsomes preincubated for 10 mins followed by NADPH addition measured after 10 mins by LC-MS/MS analysis; assay type: ADME
[29] = Drug excretion in Wistar rat urine at 4 mg/kg, iv measured after 72 hrs; assay type: ADME, organism-based; conditions: read-out: Drug excretion
[30] = Stability in rat plasma at 1 uM after 5 mins by LC-MS/MS analysis; assay type: ADME, cell-free; conditions: read-out: Stability
[31] = Drug uptake in Wistar rat large intestine at 6 mg/kg, iv measured after 4 hrs; assay type: ADME, organism-based; conditions: in vivo
[32] = Stability in rat liver microsomes at 50 uM after 150 mins in presence of NADPH by LC-MS/MS analysis; assay type: ADME, microsome; conditions: read-out: Stability

Sequence of Cytochrome P450 2C19 (P33261 whole entry): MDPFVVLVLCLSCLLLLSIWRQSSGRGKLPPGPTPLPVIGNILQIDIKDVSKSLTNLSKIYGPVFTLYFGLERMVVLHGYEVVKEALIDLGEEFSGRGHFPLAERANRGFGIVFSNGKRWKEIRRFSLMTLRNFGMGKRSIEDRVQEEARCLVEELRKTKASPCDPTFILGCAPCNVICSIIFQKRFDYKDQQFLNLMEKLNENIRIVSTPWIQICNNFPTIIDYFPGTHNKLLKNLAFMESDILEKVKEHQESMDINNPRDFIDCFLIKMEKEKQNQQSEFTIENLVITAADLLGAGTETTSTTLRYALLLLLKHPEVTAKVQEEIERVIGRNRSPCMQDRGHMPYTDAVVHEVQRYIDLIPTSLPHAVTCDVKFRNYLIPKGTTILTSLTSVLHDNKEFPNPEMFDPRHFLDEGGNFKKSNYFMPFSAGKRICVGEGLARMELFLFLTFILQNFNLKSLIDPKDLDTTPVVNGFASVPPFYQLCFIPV
Sequence of Cytochrome P450 3A4 (P08684 whole entry): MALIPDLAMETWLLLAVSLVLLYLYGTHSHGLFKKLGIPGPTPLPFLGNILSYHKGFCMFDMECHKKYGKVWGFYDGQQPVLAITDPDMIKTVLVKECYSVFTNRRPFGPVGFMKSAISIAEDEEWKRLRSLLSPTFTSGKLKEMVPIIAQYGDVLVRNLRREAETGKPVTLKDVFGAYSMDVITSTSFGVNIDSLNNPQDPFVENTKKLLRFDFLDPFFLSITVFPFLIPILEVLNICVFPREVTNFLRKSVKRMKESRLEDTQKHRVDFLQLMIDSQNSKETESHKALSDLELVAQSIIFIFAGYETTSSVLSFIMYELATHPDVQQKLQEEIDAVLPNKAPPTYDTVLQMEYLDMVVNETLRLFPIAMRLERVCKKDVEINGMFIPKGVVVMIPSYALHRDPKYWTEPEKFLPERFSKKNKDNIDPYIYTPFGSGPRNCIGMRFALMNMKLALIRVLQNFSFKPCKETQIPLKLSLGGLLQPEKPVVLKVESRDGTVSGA

[2H]/C(c1nc[nH]c1C(C)(C)C)=c1/[nH]c(=O)/c(=C/c2ccccc2)[nH]c1=O
AUC(0-t) [1]: 1330 ng·h/mL | dose excreted at 0.5 h [2]: 0.02% | Activity (Mus musculus [3]): Non-Toxic | Drug uptake [4]: 2023.8 ng/mL/g | dose excreted at 36 h [5]: 0.23% | Drug uptake [6]: 4808.8 ng/mL/g | Drug uptake [7]: 41048.8 ng/mL/g | Drug uptake [8]: 4538.9 ng/mL/g | Drug uptake [9]: 1366.3 ng/mL/g | Drug uptake [10]: 431.7 ng/mL/g | dose excreted at 108 h [11]: 6.83% | Drug uptake [12]: 83 ng/mL/g | dose excreted at 36 h [13]: 5.85% | t1/2 [14]: 1.415 h | IC50 (Cytochrome P450 2C19): 3.81 µM | remaining at 1 h, 1 µM [15]: 94.3% | dose excreted at 72 h [16]: 6.23% | Vd [17]: 16.2 L/kg | Drug uptake [18]: 1756.2 ng/mL/g | Drug uptake [19]: 567.3 ng/mL/g | half-life [20]: 2.29 h | Drug uptake [21]: 561 ng/mL/g | inhibition (INH) (NCI-H460 [22]): 53.3% | dose excreted at 48 h [23]: 6.1% | inhibition in vivo at 9 mg/kg (NCI-H460 [24]): 58.7% | dose excreted at 8 h [25]: 0.13% | fraction unbound at 4 h, 2 µM [26]: 0.042 | Activity (Mus musculus [27]): 19.9 g | Drug uptake [28]: 160 ng/mL/g | IC50 (Cytochrome P450 3A4): > 50 µM | dose excreted at 72 h [29]: 0.5% | remaining at 5 min, 1 µM [30]: 93.9% | Drug uptake [31]: 359 ng/mL/g | remaining at 2.5 h, 50 µM [32]: 32.9%
